Experimental data reported in US9005917B2, “Variable color two-photon fluorescent probe, method for imaging thiol activation in mitochondrion using same, and method for manufacturing the variable color two-photon fluorescent probe” (Ajou University Industry-Academic Cooperation Foundation, priority 2011, dated 2015).

Tests used:
[1] = test system: thiols in rat hippocampal slices; experiment: Ratiometric two-photon microscopy imaging of rat hippocampal slices
Protocol: (a, d) Bright-field images of the CA1 and CA3 regions. (b, e) Ratiometric TPM images of rat hippocampal slices that were (b) not treated and (e) pretreated with NEM (100 μM) for 30 minutes before labeling with SSH-Mito. Ten TPM images were accumulated along the z-axis direction at depths of about 90-190 μm (10×). (c, f) Enlarged (40×) images of the red boxes in (b) and (e) at a depth of 120 μm. The two-photon excited fluorescence (TPEF) was collected in two channels (blue=425-475 nm, yellow=525-575 nm) upon excitation at 740 nm with a femtosecond (fs) pulse. Scale bars: 300 μm (a, d) and 75 μm (c, f)).
In order to investigate the utility of two-photon fluorescent probe of the present invention in tissue imaging, rat hippocampal slices were monitored.
Since the structure of the brain tissue is known to be inhomogeneous throughout its entire depth, 10 TPM images were obtained at depths of 90-190 μm and they were combined to visualize the overall thiol distribution. […] When the tissue was treated with 100 μM NEM for 30 minutes, the ratio decreased to 0.85 (FIG. 8 (f)).

HeLa cells = experiment: Cytotoxicity, viability by CCK-8 kit; format: cell-based; conditions: incubated 2 hours
Protocol: The cells were incubated with SSH-Mito for 2 hours.

[2] = Thiol selectivity and pH dependence of fluorescence response in MOPS buffer
Protocol: White and black bars represent the relative fluorescence intensity (Fyellow/Fblue) of SSH-Mito (5 μM) in the presence of various analytes before and after addition of GSH, respectively. Each spectrum was acquired 2 hours after addition of various analytes at 37° C.
The excitation wavelength was 380 nm.
White and black bars represent the relative fluorescence intensity before and after addition of GSH, respectively.

thiols in HeLa cells = experiment: Ratiometric two-photon microscopy imaging of thiols in HeLa cells; format: cell-based
Protocol: The images were acquired using 740 nm excitation and fluorescence emission windows of 425-475 nm (blue) and 525-575 nm (yellow). Scale bar: 20 μm. The cells shown are representative images obtained from repeated experiments (n=5).
It was tested if the two-photon fluorescent probe of the present invention can monitor the change of thiols in a living cell.
When the cells were pre-incubated for 1 day with α-lipolic acid which increases GSH production (FIG. 6 (b)), the Fyellow/Fblue ratio increased to 2.64. And, when treated with N-ethylmaleimide (NEM), a well-known thiol blocking agent, the Fyellow/Fblue ratio decreased to 0.77 (FIG. 6 (c)).

[3] = Measurement of photophysical properties in MOPS buffer; format: physicochemical; conditions: for λ(1)max, λmax of one-photon absorption spectra: MOPS buffer (30 mM MOPS, 100 mM KCl, pH 7.4); for Φδ, two-photon action cross section / λ(2)max, λmax of two-photon excitation spectra / λfl max, λmax of one-photon emission spectra / 10^−4 ε, molar extinction coefficient (in parentheses) / Φ, fluorescence quantum yield / δ, peak two-photon cross section per photon: MOPS buffer pH 7.4; for 10^−4 ε, molar extinction coefficient (in parentheses): printed as 10^−4 ε; for Φ, fluorescence quantum yield / δ, peak two-photon cross section per photon: ±15%
Protocol: (§1) Photophysical properties of the two-photon fluorescent probe (SSH-Mito) (Example 1) and the compound represented by Formula 6 were measured in MOPS buffer (30 mM MOPS, 100 mM KCl, pH 7.4).

[4] = Emission ratio change (Rmax/Rmin) before and after addition of GSH; conditions: before and 2 hours after addition of 10 mM GSH
Protocol: as §1

[5] = Measurement of water solubility by fluorescence intensity versus concentration; format: physicochemical; conditions: 30 mM MOPS, 100 mM KCl, pH 7.4; 0.2% DMSO
Protocol: A small amount of the two-photon fluorescent probe (SSH-Mito) prepared in Example 1 was dissolved in DMSO to prepare a stock solution (1.0×10^−2 M). The solution was diluted to 6.0×10^−3 to 6.0×10^−5 M and added to a cuvette containing 3.0 mL of a buffer (30 mM MOPS, 100 mM KCl, pH 7.4) using a microsyringe. In all cases, the concentration of DMSO in water was maintained at 0.2%. […] The maximum concentration in the linear region is determined as the solubility of the two-photon fluorescent probe.

Row | Compound | average emission ratio ([1]; CA1 region, depth of 120 μm, not treated) | average emission ratio ([1]; tissue treated with 100 μM NEM for 30 minutes) | viability of HeLa cells (cytotoxicity) (HeLa cells) | selectivity for GSH over other analytes ([2]; 5 μM probe, 10 mM analytes, 30 mM MOPS buffer pH 7.4) | fluorescence response toward compounds containing thiol groups ([2]; GSH, Cys, Hcy, DTT, 2-ME, 2-AET) | effect of pH on fluorescence ([2]; absence and presence of 10 mM GSH, MOPS buffer) | fluorescence response toward analytes without thiol groups ([2]; amino acids (Glu, Ser, Val, Met, Ala, Ile), metal ions (Na+, K+, Ca+, Mg2+, Zn2+) and H2O2) | Fyellow/Fblue ratio (thiols in HeLa cells; HeLa cells pre-incubated for 1 day with α-lipolic acid) | Fyellow/Fblue ratio (thiols in HeLa cells; HeLa cells treated with N-ethylmaleimide (NEM)) | average emission ratio (Fyellow/Fblue) (thiols in HeLa cells; HeLa cells, TP excitation at 740 nm, no pretreatment) | λ(1)max, λmax of one-photon absorption spectra [3] [nm] | Φδ, two-photon action cross section [3] | λ(2)max, λmax of two-photon excitation spectra [3] [nm] | λfl max, λmax of one-photon emission spectra [3] [nm] | 10^−4 ε, molar extinction coefficient (in parentheses) [3] [M^−1 cm^−1] | Φ, fluorescence quantum yield [3] | δ, peak two-photon cross section per photon [3] [GM] | Rmax/Rmin, emission ratio (F525-575/F425-475) conversion factor, one-photon processes ([4]; one-photon) | Rmax/Rmin, emission ratio conversion factor, two-photon processes (in parentheses) ([4]; two-photon) | solubility in the buffer [5] [µM]
1 | CN(C(=O)OCCSSCCN)c1ccc2cc(-c3nc4ccc(C(=O)NCC[P+](c5ccccc5)(c5ccccc5)c5ccccc5)cc4s3)ccc2c1 [SSH-Mito] | 1.66 | 0.85 | adequate for detecting thiols in living cells | high selectivity for GSH | strong responses | pH-insensitive at biologically relevant pH | negligible responses | 2.64 | 0.77 | 1.24 | 338 | 80 | 740 | 462 | 2.05 | 0.82 | 95 | 45 | 40 | ~5.0
2 | CNc1ccc2cc(-c3nc4ccc(C(=O)NCC[P+](c5ccccc5)(c5ccccc5)c5ccccc5)cc4s3)ccc2c1.[Br-] [Compound No. 6] |  |  |  |  |  |  |  |  |  |  | 383 | 55 | 750 | 545 | 1.50 | 0.12 | 550 |  |  | 
